{"source": "paper PMC5393024", "about": "“Discovery and characterization of natural tropolones as inhibitors of the antibacterial target CapF from Staphylococcus aureus” (Scientific Reports, 2015)", "key": {"CapFΔ57-70": {"system": "CapFΔ57-70", "assay": "DSC thermal stability of CapFΔ57-70", "type": "binding, Staphylococcus aureus", "details": "24 μM protein, 240 μM inhibitor", "description": "Thermal stability of CapF was examined by DSC in a ultrasensitive VP-capillary micro-calorimeter (Microcal). Prior to the experiment the protein was equilibrated in a buffer composed of 50 mM HEPES (pH 7.5), 50 mM NaCl and 5% DMSO. The concentration of protein and inhibitor were adjusted to 24 μM and 240 μM, respectively. The samples were heated between 10 and 110 °C at a scan rate of 1 °C/min. Data analysis was carried out with ORIGIN7 using a two-state transition model.\nFigure S6. Thermal stability of CapF examined with DSC. (a) CapFΔ57-70, and (b) CapFΔ57-70\nin the presence of 3-isopropenyl-tropolone. Concentration of CapF and inhibitor was 24 µM and\n240 µM, respectively. Experimental data and fitting curves are represented in black and red lines,\n(§1) (1 picture or pasted object on this page, not shown here)"}, "[1]": {"target": "holo-CapF (reconstituted with Zn^2+) (Staphylococcus aureus, UniProt A0A0H3JP37)", "assay": "ITC binding to CapF reconstituted with Zn2+ (holo-CapF)", "text": "(§2) Because tropolone and its analogs have been described as metal chelators in proteins, we anticipated that binding of the inhibitor to CapF is governed by the Zn^2+ ion present in the cupin domain[12]. To confirm this hypothesis, we performed two different types of experiments. First, we determined the binding properties of 3-isopropenyl-tropolone to apo-CapF (i.e. Zn^2+-depleted CapF) and to holo-CapF (reconstituted with Zn^2+) by isothermal titration calorimetry (ITC). The stoichiometry is consistent with a 1:1 binding model.\n(§3) Figure 3 Binding of 3-isopropenyl-tropolone to CapF requires Zn^2+. CapF (150 μM) reconstituted with Zn^2+ was titrated with 1.65 mM inhibitor in the absence (a) or the presence (b) of 1 mM EDTA. The upper panels correspond to the titration data, and the lower panels to the integrated binding isotherms. (c) Binding competition assay. CapF (1.0 μM) reconstituted with Zn^2+ in the presence of the Zn^2+-sensitive dye FluoZin-3 (1.0 μM) was titrated with 3-isopropenyl-tropolone (λEX = 490 nm; λEM = 520 nm).\n(§4) Binding constants and thermodynamic parameters of the interaction between CapF and fragment compounds were determined with an iTC200 instrument (GE Healthcare) at 25 °C. Samples were equilibrated in a buffer composed of 10 mM HEPES (pH 7.4) and 150 mM NaCl supplemented with 5% (v/v) DMSO. CapF at 150–270 μM was titrated with compounds at 0.5–1.65 mM. Analysis of the data was performed with ORIGIN7 using a one-site binding model.\nFigure S8. Binding isotherms of compounds with CapF as determined by ITC. (a) tropone, (b) 2-Cl-tropone, (c) tropolone, (d) 4-isopropyl-tropolone. Concentration of CapF in the cell was 150 µM, except in panel (a) where it was 270 µM. Concentration of compounds was 1.65 mM, except in panel (a) where it was 0.5 mM. Titrations were performed in an iTC200 instrument at 25 °C.\nData analysis was carried out with ORIGIN."}, "[2]": {"assay": "ITC titration of free Zn2+ in solution", "type": "binding", "details": "150 µM Zn2+ (ZnCl2) titrated with 1.65 mM compound", "text": "as §2\nFigure S3. Zn2+ governs the binding of inhibitor to CapF. (a) Titration of 150 µM Zn2+ (prepared\nfrom ZnCl2) with 1.65 mM 3-isopropenyl-tropolone. (b) Fluorescence of the Zn2+-sensitive dye\nFluoZin-3 (1.0 µM) in the presence of CapF (1 µM), CapF (1 µM) with 3-isopropenyl-tropolone […]"}, "[3]": {"target": "T1, CapF lacking the His6-tag (Staphylococcus aureus, UniProt A0A0H3JP37)", "T1 sequence (A0A0H3JP37 1-369)": "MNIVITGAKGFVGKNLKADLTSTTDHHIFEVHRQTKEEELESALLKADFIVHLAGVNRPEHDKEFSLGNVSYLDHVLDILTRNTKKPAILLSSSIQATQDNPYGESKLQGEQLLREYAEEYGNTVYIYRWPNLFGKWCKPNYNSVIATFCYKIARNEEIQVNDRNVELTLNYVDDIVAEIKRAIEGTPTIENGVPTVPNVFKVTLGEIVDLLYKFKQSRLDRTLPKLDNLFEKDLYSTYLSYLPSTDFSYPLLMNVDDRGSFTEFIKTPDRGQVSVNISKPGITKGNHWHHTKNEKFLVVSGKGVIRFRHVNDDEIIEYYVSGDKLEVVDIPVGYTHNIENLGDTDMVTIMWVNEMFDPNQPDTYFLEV", "assay": "ITC binding to CapF lacking the His6-tag", "description": "A control experiment with CapF lacking the His6-tag was carried to rule out the possibility of spurious effects caused by the affinity tag (Supplementary Information Figure S4).\nFigure S4. Binding of 3-isopropyl-tropolone to CapF lacking the His6-tag. Titration of CapF (220 µM) with 2.2 mM inhibitor in a buffer composed of 10 mM HEPES (pH 7.5), 150 mM NaCl, and 5% DMSO at 25 °C. A construct of full-length CapF bearing a cleavable His6-tag was prepared and purified exactly as that of CapF Δ57-70 (see Methods section for the detailed protocol of CapFΔ57-70), except that (i) the dialysis buffer after to reconstitute the enzyme with Zn2+ contained 150 mM NaCl (instead of 50 mM) and 12.5 µM ZnCl2 (instead of 10 µM), and (ii) the buffer of the size exclusion chromatography step contained 10 mM HEPES (instead of 50 mM) and 150 mM NaCl (instead of 50 mM). The values of the thermodynamic parameters […]\nkcal mol-1, and n = 0.92 ± 0.1.\nas §1"}, "[4]": {"system": "apo-CapF (Zn^2+-depleted)", "assay": "ITC binding to Zn2+-depleted CapF (1 mM EDTA)", "parameters": "species or system Staphylococcus aureus", "details": "150 μM CapF, 1.65 mM inhibitor", "text": "as §2, §3\nas §4, with “Analysis of the data was performed with ORIGIN7 using a one-site binding model.” left out"}}}
{"molecule": "C=C(C)c1ccccc(=O)c1O", "note": "[3-isopropenyl-tropolone]", "values": [{"measurement": "ΔTM (decrease in thermal stability)", "setting": "CapFΔ57-70", "result": "6.3 ± 0.2", "unit": "°C"}, {"measurement": "TM", "setting": "CapFΔ57-70; CapFΔ57-70 alone 60.7 ± 0.1", "result": "54.4 ± 0.1", "unit": "°C"}, {"measurement": "Kd", "setting": "[1]", "result": "27 ± 12", "unit": "µM"}, {"measurement": "n (binding stoichiometry)", "setting": "[1]; ITC, 25 °C", "result": "1.2 ± 0.1"}, {"measurement": "ΔH°", "setting": "[1]; ITC, 25 °C", "result": "-3.4 ± 0.9", "unit": "kcal/mol"}, {"measurement": "−TΔS°", "setting": "[1]; ITC, 25 °C", "result": "-2.8 ± 1.1", "unit": "kcal/mol"}, {"measurement": "ligand efficiency (LE = −ΔG/HAC)", "setting": "[1]; from ITC binding free energy", "result": 0.52, "unit": "kcal/mol"}, {"measurement": "binding to free-Zn^2+ in solution by ITC", "setting": "[2]", "result": "not detected"}, {"measurement": "Kd", "setting": "[3]", "result": "13 ± 1", "unit": "µM"}, {"measurement": "-TΔS", "setting": "[3]; ITC, 25 °C", "result": "-3.0 ± 0.4", "unit": "kcal/mol"}, {"measurement": "n", "setting": "[3]; ITC, 25 °C", "result": "0.92 ± 0.1"}, {"measurement": "ΔH", "setting": "[3]; ITC, 25 °C", "result": "-3.6 ± 0.3", "unit": "kcal/mol"}, {"measurement": "binding to apo-CapF by ITC", "setting": "[4]", "result": "does not bind"}]}
